Measurements reported in patent US20170152239A1, “BENZAMIDE AND HETEROBENZAMIDE COMPOUNDS” (PFIZER INC., priority 2012, published 2017).

biological target: WT EZH2 (EZH2 4 protein complex: EZH2, EED, SUZ12, RbAp48) (Homo sapiens, UniProt O75530+Q09028+Q15022+Q15910); assay: WT EZH2 nucleosome assay; assay type: biochemical; settings: nucleosome assay, 5 nM EZH2 4-protein complex, 1.5 μM SAM; read-out: WT EZH2 IC50
Method: Nucleosome Assay Protocol:
A. Compound preparation • 1. Prepare 10 mM stock solutions in 100% DMSO from solid material • 2. Serial dilute 10 mM compound stocks either 2 or 3-fold in 100% DMSO to generate compounds for 11 point dose response
B. Reagent preparation • 1. Prepare 1× assay buffer containing 100 mM Tris pH 8.5, 4 mM DTT and 0.01% Tween-20 • 2. Dilute purified HeLA oligonucleosomes and recombinant histone H1 (New England Biolabs) in assay buffer to 1.67×. • 3. Dilute EZH2 4 protein complex (EZH2, EED, SUZ12, RbAp48) to 3.5× in assay buffer • 4. Prepare 10×^3H SAM solution in assay buffer using 0.94 μCi/well of radioactive SAM (Perkin Elmer) and sufficient non-labeled SAM (Sigma) for 1.5 μM final concentration. • 5. Dilute TCA to 20% in DI water
C. Enzyme reaction • 1. Final reaction conditions are 5 nM EZH2 4-protein complex, 1.5 μM SAM, 25 μg/mL oligonucleosomes, 50 nM rH1 in a 50 μl reaction volume. • 2. Add 1 μl of diluted compound to the assay plate (96-well V-bottom polypropylene plates) or 1 μl of DMSO for control wells. • 3. Add 30 μl of nucleosomes to the assay plate • 4. Add 14 μl of EZH2 4 protein complex to the assay plate • 5. Add 5 μl of ^3H SAM to start the reaction. • 6. Stop the reaction after 60 minutes with the addition of 100 μl of 20% TCA • 7. Transfer 150 μl of quenched reaction into a prepared filterplate (Millipore #MSIPN4B10) • 8. Apply vacuum to the filterplate to filter the reaction mix through the membrane. • 9. Wash the filterplate with 8×200 μl of PBS, blot dry and dry in an oven for 30 minutes • 10. Add 50 μl of microscint-20 scintillation fluid (Perkin Elmer) to each well, wait 30 minutes and count on a liquid scintillation counter.
D. Data analysis • 1. IC50 values were determined by fitting the data to a 4-parameter IC50 equation using proprietary curve fitting software.
Wild type (WT) EZH2% Effect at 20 μM and IC50 values (μM) generated in WT EZH2 or EZH2PRC2 mutant Y641N nucleosome assays are provided in Table 3 below. A blank entry in the table indicates the data was not generated in that assay.

Chain of WT EZH2 (EZH2 4 protein complex: EZH2, EED, SUZ12, RbAp48) (Q15910 whole entry): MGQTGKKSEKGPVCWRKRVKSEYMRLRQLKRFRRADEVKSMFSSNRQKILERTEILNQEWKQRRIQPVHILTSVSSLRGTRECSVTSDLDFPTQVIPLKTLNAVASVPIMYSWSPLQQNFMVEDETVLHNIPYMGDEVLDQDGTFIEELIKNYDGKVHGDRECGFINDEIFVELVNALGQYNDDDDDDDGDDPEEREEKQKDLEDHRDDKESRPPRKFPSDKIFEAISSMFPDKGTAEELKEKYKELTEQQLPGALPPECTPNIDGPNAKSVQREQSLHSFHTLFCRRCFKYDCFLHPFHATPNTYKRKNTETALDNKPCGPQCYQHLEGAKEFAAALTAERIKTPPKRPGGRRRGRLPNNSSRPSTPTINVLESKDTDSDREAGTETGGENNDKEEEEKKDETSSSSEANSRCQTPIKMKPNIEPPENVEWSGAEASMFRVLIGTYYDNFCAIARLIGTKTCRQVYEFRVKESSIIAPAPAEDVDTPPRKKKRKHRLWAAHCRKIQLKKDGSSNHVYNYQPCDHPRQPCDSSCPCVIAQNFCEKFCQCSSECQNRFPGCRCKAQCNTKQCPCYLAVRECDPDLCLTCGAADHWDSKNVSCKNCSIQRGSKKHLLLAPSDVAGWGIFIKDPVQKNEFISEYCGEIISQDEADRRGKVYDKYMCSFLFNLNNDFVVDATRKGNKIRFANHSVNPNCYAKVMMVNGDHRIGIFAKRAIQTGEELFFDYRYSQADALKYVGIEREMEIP
Chain of WT EZH2 (EZH2 4 protein complex: EZH2, EED, SUZ12, RbAp48) (O75530 whole entry partner): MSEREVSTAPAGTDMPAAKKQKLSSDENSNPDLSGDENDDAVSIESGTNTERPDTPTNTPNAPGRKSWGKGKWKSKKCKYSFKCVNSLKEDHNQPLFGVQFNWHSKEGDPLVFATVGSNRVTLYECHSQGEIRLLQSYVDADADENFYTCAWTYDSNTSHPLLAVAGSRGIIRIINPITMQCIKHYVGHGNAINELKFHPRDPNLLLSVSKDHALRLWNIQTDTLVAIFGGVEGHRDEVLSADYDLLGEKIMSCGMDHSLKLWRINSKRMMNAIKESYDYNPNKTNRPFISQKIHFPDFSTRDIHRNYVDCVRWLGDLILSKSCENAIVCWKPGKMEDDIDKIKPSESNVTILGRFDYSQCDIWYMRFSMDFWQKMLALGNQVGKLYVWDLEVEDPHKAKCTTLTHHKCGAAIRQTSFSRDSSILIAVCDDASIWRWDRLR
Chain of WT EZH2 (EZH2 4 protein complex: EZH2, EED, SUZ12, RbAp48) (Q15022 whole entry partner): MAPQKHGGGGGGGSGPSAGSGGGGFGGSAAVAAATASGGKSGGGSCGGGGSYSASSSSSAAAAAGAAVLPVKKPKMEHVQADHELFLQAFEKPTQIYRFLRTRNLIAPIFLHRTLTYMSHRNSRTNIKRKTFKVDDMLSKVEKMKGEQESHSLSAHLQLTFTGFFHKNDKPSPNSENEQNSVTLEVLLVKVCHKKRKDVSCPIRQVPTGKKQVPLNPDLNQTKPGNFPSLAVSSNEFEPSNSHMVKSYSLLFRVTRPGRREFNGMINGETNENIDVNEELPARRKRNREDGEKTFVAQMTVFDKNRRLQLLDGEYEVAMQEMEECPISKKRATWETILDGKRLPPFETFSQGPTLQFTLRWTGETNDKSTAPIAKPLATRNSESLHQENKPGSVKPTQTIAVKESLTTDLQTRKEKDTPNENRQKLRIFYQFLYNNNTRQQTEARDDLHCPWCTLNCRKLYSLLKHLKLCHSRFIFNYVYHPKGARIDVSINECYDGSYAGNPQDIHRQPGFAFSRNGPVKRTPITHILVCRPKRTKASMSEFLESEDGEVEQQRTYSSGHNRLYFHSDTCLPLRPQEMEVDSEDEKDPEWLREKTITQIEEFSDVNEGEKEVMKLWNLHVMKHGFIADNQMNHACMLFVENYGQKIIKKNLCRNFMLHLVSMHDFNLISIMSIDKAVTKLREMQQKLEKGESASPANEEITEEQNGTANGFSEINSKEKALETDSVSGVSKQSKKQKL
Chain of WT EZH2 (EZH2 4 protein complex: EZH2, EED, SUZ12, RbAp48) (Q09028 whole entry partner): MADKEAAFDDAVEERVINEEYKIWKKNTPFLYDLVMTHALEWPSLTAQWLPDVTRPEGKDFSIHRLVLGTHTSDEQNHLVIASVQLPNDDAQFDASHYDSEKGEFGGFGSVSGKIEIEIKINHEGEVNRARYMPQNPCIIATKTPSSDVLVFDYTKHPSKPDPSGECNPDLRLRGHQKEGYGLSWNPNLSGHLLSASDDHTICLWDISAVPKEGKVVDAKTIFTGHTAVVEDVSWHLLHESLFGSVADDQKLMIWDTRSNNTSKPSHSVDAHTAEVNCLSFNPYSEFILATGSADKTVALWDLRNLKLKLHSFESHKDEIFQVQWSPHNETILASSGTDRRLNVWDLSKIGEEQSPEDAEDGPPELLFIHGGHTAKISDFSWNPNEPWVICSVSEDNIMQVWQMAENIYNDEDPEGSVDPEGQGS

| SMILES | IC50 [µM] |
| --- | --- |
| CCc1nncn1-c1cc(Cl)cc(C(=O)NCc2c(C)cc(C)[nH]c2=O)c1C [Example 61, 5-chloro-N-[(4,6-dimethyl-2-oxo-1,2-dihydropyridin-3-yl)methyl]-3-(3-ethyl-4H-1,2,4-triazol-4-yl)-2-methylbenz-amide] | 4.21 |
| Cc1cc(C)c(CNC(=O)c2cc(Cl)cc(-n3c(C)nnc3C)c2C)c(=O)[nH]1 [Example 62, 5-chloro-N-[(4,6-dimethyl-2-oxo-1,2-dihydropyridin-3-yl)methyl]-3-(3,5-dimethyl-4H-1,2,4-triazol-4-yl)-2-methylbenz-amide] | 4.22 |
| Cc1cc(C)c(CNC(=O)c2cc(Cl)cc(-n3nccc3C)c2C)c(=O)[nH]1 [Example 63, 5-chloro-N-[(4,6-dimethyl-2-oxo-1,2-dihydropyridin-3-yl)methyl]-2-methyl-3-(5-methyl-1H-pyrazol-1-yl)benzamide] | 4.38 |
| Cc1cc(C)c(CNC(=O)c2cccc(-c3c(C)ncnc3C)c2C)c(=O)[nH]1 [Example 64, N-[(4,6-dimethyl-2-oxo-1,2-dihydropyridin-3-yl)methyl]-3-(4,6-dimethylpyrimi-din-5-yl)-2-methylbenz-amide] | 4.42 |
| COC1CCN(c2nc(C(=O)NCc3c(C)cc(C)[nH]c3=O)c(C)c(-c3ccnn3C)n2)CC1 [Example 68, N-[(4,6-dimethyl-2-oxo-1,2-dihydropyridin-3-yl)methyl]-2-(4-methoxypiperi-din-1-yl)-5-methyl-6-(1-methyl-1H-pyrazol-5-yl)pyrimidine-4-carboxamide] | 5.19 |
| Cc1cc(C)c(CNC(=O)c2ccnc(N3CCC[C@@H]3C)c2Cl)c(=O)[nH]1 [Example 69, 3-chloro-N-[(4,6-dimethyl-2-oxo-1,2-dihydropyridin-3-yl)methyl]-2-[(2S)-2-methylpyrroli-din-1-yl]isonicotinamide] | 5.19 |
| Cc1cc(C)c(CNC(=O)c2cccc(-c3c(C)nn(C)c3C)c2C)c(=O)[nH]1 [Example 70, N-[(4,6-dimethyl-2-oxo-1,2-dihydropyridin-3-yl)methyl]-2-methyl-3-(1,3,5-trimethyl-1H-pyrazol-4-yl)benzamide] | 5.21 |
| Cc1cc(C)c(CNC(=O)c2ncnc(N3CCC[C@@H]3C)c2C)c(=O)[nH]1 [Example 71, N-[(4,6-dimethyl-2-oxo-1,2-dihydropyridin-3-yl)methyl]-5-methyl-6-[(2S)-2-methylpyrroli-din-1-yl]pyrimidine-4-carboxamide] | 6.33 |
| CSc1nc(C(=O)NCc2c(C)cc(C)[nH]c2=O)c(C)c(-c2ccnn2C)n1 [Example 72, N-[(4,6-dimethyl-2-oxo-1,2-dihydropyridin-3-yl)methyl]-5-methyl-6-(1-methyl-1H-pyrazol-5-yl)-2-(methylthio) pyrimidine-4-carboxamide] | 6.37 |
| Cc1cc(C)c(CNC(=O)c2ncnc(N3CCC(C)(C)C3)c2C)c(=O)[nH]1 [Example 73, N-[(4,6-dimethyl-2-oxo-1,2-dihydropyridin-3-yl)methyl]-6-(3,3-dimethylpyrroli-din-1-yl)-5-methylpyrimi-dine-4-carboxamide] | 6.5 |
| Cc1cc(C)c(CNC(=O)c2nc(OCc3cncnc3)nc(-c3ccnn3C)c2C)c(=O)[nH]1 [Example 74, N-[(4,6-dimethyl-2-oxo-1,2-dihydropyridin-3-yl)methyl]-5-methyl-6-(1-methyl-1H-pyrazol-5-yl)-2-(pyrimidin-5-ylmethoxy)pyri-midine-4-carboxamide] | 6.61 |
| Cc1cc(C)c(CNC(=O)c2ncnc(N3CCOC[C@@H]3C)c2C)c(=O)[nH]1 [Example 75, N-[(4,6-dimethyl-2-oxo-1,2-dihydropyridin-3-yl)methyl]-5-methyl-6-[(3S)-3-methylmorph-olin-4-yl]pyrimidine-4-carboxamide] | 6.78 |
| Cc1cc(C)c(CNC(=O)c2cccc(-c3c(C#N)cnn3C)c2C)c(=O)[nH]1 [Example 76, 3-(4-cyano-1-methyl-1H-pyrazol-5-yl)-N-[(4,6-dimethyl-2-oxo-1,2-dihydropyridin-3-yl)methyl]-2-methylbenz-amide] | 6.94 |
| Cc1cc(C)c(CNC(=O)c2cc(Cl)cc(-n3cnnc3C)c2C)c(=O)[nH]1 [Example 78, 5-chloro-N-[(4,6-dimethyl-2-oxo-1,2-dihydropyridin-3-yl)methyl]-2-methyl-3-(3-methyl-4H-1,2,4-triazol-4-yl)benzamide] | 7.31 |
| Cc1cc(C)c(CNC(=O)c2nc(-c3cncnc3)nc(-c3ccnn3C)c2C)c(=O)[nH]1 [Example 80, N-[(4,6-dimethyl-2-oxo-1,2-dihydropyridin-3-yl)methyl]-5-methyl-6-(1-methyl-1H pyrazol-5-yl)-2,5′-bipyrimidine-4-carboxamide] | 7.53 |
| Cc1cc(C)c(CNC(=O)c2nc(N3CCOCC3)nc(N3CCC[C@@H]3C)c2C)c(=O)[nH]1 [Example 81, N-[(4,6-dimethyl-2-oxo-1,2-dihydropyridin-3-yl)methyl]-5-methyl-6-[(2S)-2-methylpyrroli-din-1-yl]-2-morpholin-4-ylpyrimidine-4-carboxamide] | 7.74 |
| Cc1cc(C)c(CNC(=O)c2ncnc(N3C4CCC3CC4)c2C)c(=O)[nH]1 [Example 83, 6-(7-azabicyclo[2.2.1]hept-7-yl)-N-[(4,6-dimethyl-2-oxo-1,2-dihydropyridin-3-yl)methyl]-5-methyl-pyrimidine-4-carobxamide] | 7.96 |
| Cc1[nH]c(=O)c(CNC(=O)c2cc(Cl)cc(-c3ccnn3C)c2C)c2c1CCCC2 [Example 84, 5-chloro-2-methyl-N-[(1-methyl-3-oxo-2,3,5,6,7,8-hexahydroiso-quinolin-4-yl)methyl]-3-(1-methyl-1H-pyrazol-5-yl)benzamide] | 8.14 |
| Cc1cc(C)c(CNC(=O)c2ccnc(OC(C)C)c2C)c(=O)[nH]1 [Example 87, N-[(4,6-dimethyl-2-oxo-1,2-dihydropyridin-3-yl)methyl]-2-isopropxy-3-methylisonico-tinamide] | 9.76 |
| Cc1cc(C)c(CNC(=O)c2nc(OCCO)nc(-c3ccnn3C)c2C)c(=O)[nH]1 [Example 90, N-[(4,6-dimethyl-2-oxo-1,2-dihydropyridin-3-yl)methyl]-2-(2-hydroxyethoxy)-5-methyl-6-(1-methyl-1H-pyrazol-5-yl)pyrimidine-4-carboxamide] | 12 |
| Cc1cc(C)c(CNC(=O)c2ccnc(-c3ccnn3C)c2Cl)c(=O)[nH]1 [Example 91, 3-chloro-N-[(4,6-dimethyl-2-oxo-1,2-dihydropyridin-3-yl)methyl]-2-(1-methyl-1H-pyrazol-5-yl)isonicotin-amide] | 12.1 |
| Cc1cc(C)c(CNC(=O)c2nc(N3CCCC3)nc(-c3ccnn3C)c2C)c(=O)[nH]1 [Example 92, N-[(4,6-dimethyl-2-oxo-1,2-dihydropyridin-3-yl)methyl]-5-methyl-6-(1-methyl-1H-pyrazol-5-yl)-2-pyrrolidin-1-ylpyrimidine-4-carboxamide] | 12.8 |
| Cc1cc(C)c(CNC(=O)c2nc(O[C@@H]3CCOC3)nc(-c3ccnn3C)c2C)c(=O)[nH]1 [Example 93, N-[(4,6-dimethyl-2-oxo-1,2-dihydropyridin-3-yl)methyl]-5-methyl-6-(1-methyl-1H-pyrazol-5-yl)-2-[(3R)-tetrahydro-furan-3-yloxy]pyrimi-dine-4-carboxamide] | 14.5 |
| Cc1cc(C)c(CNC(=O)c2nc(C3CC3)nc(-c3ccnn3C)c2C)c(=O)[nH]1 [Example 94, 2-cyclopropyl-N-[(4,6-dimethyl-2-oxo-1,2-dihydropyridin-3-yl)methyl]-5-methyl-6-(1-methyl-1H-pyrazol-5-yl)pyrimidine-4-carboxamide] | 16 |
| CCC1CCCN1c1ncnc(C(=O)NCc2c(C)cc(C)[nH]c2=O)c1C (stereo not drawn) [Example 95, N-[(4,6-dimethyl-2-oxo-1,2-dihydropyridin-3-yl)methyl]-6-(2-ethylpyrrolidin-1-yl)-5-methylpyrimi-dine-4-carboxamide] | 16.5 |
| Cc1cc(C)c(CNC(=O)c2nc(N(C)C)nc(N3CCC[C@@H]3C)c2C)c(=O)[nH]1 [Example 96, 2-(dimethylamino)-N-[(4,6-dimethyl-2-oxo-1,2-dihydropyridin-3-yl)methyl]-5-methyl-6-[(2S)-2-methyplyrrolidin-1-yl]pyrimidine-4-carboxamide] | 16.5 |
| Cc1cc(C)c(CNC(=O)c2ccnc(N3[C@H](C)CC[C@@H]3C)c2Cl)c(=O)[nH]1 [Example 97, 3-chloro-N-[(4,6-dimethyl-2-oxo-1,2-dihydropyridin-3-yl)methyl]-2-[(2R,5S)-2,5-dimethylpyrroli-din-1-yl]iso-nicotinamide] | 16.9 |
